Assays:
[1] = biological target: T1, TYK2 (Homo sapiens, UniProt P29597); experiment: HEK-Blue IFNα/β reporter assay (SEAP) for TYK2 pseudokinase inhibition; assay type: cell-based; settings: HEK-Blue IFNα/β cells, 1 ng/mL human recombinant IFNα
Procedure: (§1) HEK-Blue™ IL-23 and IFNα/β cells with a stably-integrated cytokine receptor and STAT3 or STAT1 express STAT-inducible secreted embryonic alkaline phosphatase (SEAP) reporter gene upon cytokine stimulation. These cells are plated in DMVEM (Gibco) containing 10% heat-inactivated FBS (Gibco) and 100 U/mL PenStrep (Gibco) at 37° C. under […] conditions for 20-22 hours. The cells are then pretreated with serially diluted test compounds for 60 min prior to stimulation with either 10 ng/mL human recombinant IL-23 (Miltenyl Biotech) or 1 ng/mL human recombinant IFNα (InvivoGen) for 22-24 hours for IL-23 or 16-18 h for IFNα. SEAP induction is measured using the QUANTI Blue™ Solution (InvivoGen) according to the manufacturer's instructions. Inhibition data are calculated by comparison to no inhibitor control wells for 000 inhibition and non-stimulated control wells for 10000 inhibition. Dose response curves are generated to determine the concentration required to inhibit 5000 of cellular response (IC50) as derived by non-linear regression analysis.

[2] = biological target: T1, TYK2; experiment: HEK-Blue IL-23 reporter assay (SEAP) for TYK2 pseudokinase inhibition; assay type: cell-based; set-up: HEK-Blue™ IL-23 and IFNα/β cells with a stably-integrated cytokine receptor and STAT3 or STAT1; host or cells: HEK-Blue IL-23 / HEK-Blue IFNα/β cells (HEK293 background); settings: HEK-Blue IL-23 cells, 10 ng/mL human recombinant IL-23, SEAP reporter; read-out: IL23 IC50
Procedure: as §1

T1 sequence (P29597 whole entry): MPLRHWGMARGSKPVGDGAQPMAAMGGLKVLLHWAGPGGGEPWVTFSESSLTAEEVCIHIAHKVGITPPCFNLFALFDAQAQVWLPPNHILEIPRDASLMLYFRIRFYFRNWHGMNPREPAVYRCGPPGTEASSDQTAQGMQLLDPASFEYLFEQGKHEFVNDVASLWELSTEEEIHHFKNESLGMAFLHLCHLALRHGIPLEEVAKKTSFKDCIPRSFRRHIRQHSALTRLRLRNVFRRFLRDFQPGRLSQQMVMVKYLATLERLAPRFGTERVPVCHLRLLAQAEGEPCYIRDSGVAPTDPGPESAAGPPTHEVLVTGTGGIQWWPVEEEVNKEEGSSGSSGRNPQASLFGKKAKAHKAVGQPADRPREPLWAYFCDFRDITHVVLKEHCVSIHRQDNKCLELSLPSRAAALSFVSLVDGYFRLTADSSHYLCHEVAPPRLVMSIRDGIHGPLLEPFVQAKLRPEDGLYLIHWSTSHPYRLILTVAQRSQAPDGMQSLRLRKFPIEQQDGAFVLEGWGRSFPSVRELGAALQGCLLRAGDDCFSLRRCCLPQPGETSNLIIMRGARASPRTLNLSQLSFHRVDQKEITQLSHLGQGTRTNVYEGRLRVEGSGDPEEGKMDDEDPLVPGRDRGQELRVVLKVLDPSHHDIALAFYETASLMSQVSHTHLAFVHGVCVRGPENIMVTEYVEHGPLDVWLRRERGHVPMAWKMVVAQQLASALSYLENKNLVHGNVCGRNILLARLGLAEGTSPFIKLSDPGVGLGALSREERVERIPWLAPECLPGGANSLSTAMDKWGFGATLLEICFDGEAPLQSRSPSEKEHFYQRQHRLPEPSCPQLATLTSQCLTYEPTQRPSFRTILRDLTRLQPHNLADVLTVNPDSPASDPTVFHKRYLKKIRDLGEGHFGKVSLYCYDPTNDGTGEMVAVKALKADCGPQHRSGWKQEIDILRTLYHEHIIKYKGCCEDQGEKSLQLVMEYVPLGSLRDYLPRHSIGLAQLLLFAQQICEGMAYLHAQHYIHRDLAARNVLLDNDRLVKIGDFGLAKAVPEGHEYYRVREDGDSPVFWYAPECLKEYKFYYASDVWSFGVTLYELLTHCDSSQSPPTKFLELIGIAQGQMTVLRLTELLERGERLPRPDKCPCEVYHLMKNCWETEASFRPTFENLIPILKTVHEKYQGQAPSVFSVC

| Compound | IC50 [1] | IC50 [2] |
| --- | --- | --- |
| COc1cccc(-n2[nH]c(=O)c3cnc(Nc4cc(OC)ncn4)cc32)c1 [Compound I-46, 1-(3-methoxyphenyl)-6-((6-methoxypyrimidin-4-yl)amino)-1,2-dihydro-3H-pyrazolo[4,3-c]pyridin-3-one] | > 90 µM | < 10 µM |
| COc1cccc(-n2[nH]c(=O)c3cnc(Nc4cc(C)ncn4)cc32)c1 [Compound I-47, 1-(3-methoxyphenyl)-6-((6-methylpyrimidin-4-yl)amino)-1,2-dihydro-3H-pyrazolo[4,3-c]pyridin-3-one] | < 10 µM | > 90 µM |
| COc1cccc(-n2[nH]c(=O)c3cnc(Nc4ccnc(OC)n4)cc32)c1 [Compound I-48, 1-(3-methoxyphenyl)-6-((2-methoxypyrimidin-4-yl)amino)-1,2-dihydro-3H-pyrazolo[4,3-c]pyridin-3-one] | > 90 µM | > 90 µM |
| COc1cccc(-n2[nH]c(=O)c3cnc(Nc4ccccn4)cc32)c1 [Compound I-50, 1-(3-methoxyphenyl)-6-(pyridin-2-ylamino)-1,2-dihydro-3H-pyrazolo[4,3-c]pyridin-3-one] | < 10 µM | < 10 µM |
| COc1cccc(-n2[nH]c(=O)c3cnc(Nc4ccncn4)cc32)c1 [Compound I-51, 1-(3-methoxyphenyl)-6-(pyrimidin-4-ylamino)-1,2-dihydro-3H-pyrazolo[4,3-c]pyridin-3-one] | < 10 µM | < 10 µM |
| COc1cccc(-n2[nH]c(=O)c3cnc(Nc4cccnn4)cc32)c1 [Compound I-52, 1-(3-methoxyphenyl)-6-(pyridazin-3-ylamino)-1,2-dihydro-3H-pyrazolo[4,3-c]pyridin-3-one] | < 10 µM | < 10 µM |
| COc1cccc(-n2[nH]c(=O)c3cnc(Nc4cnccn4)cc32)c1 [Compound I-53, 1-(3-methoxyphenyl)-6-(pyrazin-2-ylamino)-1,2-dihydro-3H-pyrazolo[4,3-c]pyridin-3-one] | < 10 µM | < 10 µM |
| COc1cccc(-n2[nH]c(=O)c3cnc(NC(=O)C4CC4)cc32)c1 [Compound I-54, N-(1-(3-methoxyphenyl)-3-oxo-2,3-dihydro-1H-pyrazolo[4,3-c]pyridin-6-yl)cyclopropanecarboxamide] | < 10 µM | < 10 µM |
| O=C(Nc1cc2c(cn1)c(=O)[nH]n2-c1cccc(OC(F)(F)F)c1)C1CC1 [Compound I-55, N-(3-oxo-1-(3-(trifluoromethoxy)phenyl)-2,3-dihydro-1H-pyrazolo[4,3-c]pyridin-6-yl)cyclopropanecarboxamide] | < 10 µM | < 10 µM |
| O=c1[nH]n(-c2cccc(OC(F)(F)F)c2)c2cc(Nc3ccc(F)cn3)ncc12 [Compound I-56, 6-((5-fluoropyridin-2-yl)amino)-1-(3-(trifluoromethoxy)phenyl)-1,2-dihydro-3H-pyrazolo[4,3-c]pyridin-3-one] | 10 to 30 µM | < 10 µM |
| Cc1cc(Nc2cc3c(cn2)c(=O)[nH]n3-c2cccc(C(F)(F)F)c2)nc(C)n1 [Compound I-57, 6-((2,6-dimethylpyrimidin-4-yl)amino)-1-(3-(trifluoromethyl)phenyl)-1,2-dihydro-3H-pyrazolo[4,3-c]pyridin-3-one] | < 10 µM | < 10 µM |
| O=C(Nc1cc2c(cn1)c(=O)[nH]n2-c1cccc(C(F)(F)F)c1)C1CC1 [Compound I-58, N-(3-oxo-1-(3-(trifluoromethyl)phenyl)-2,3-dihydro-1H-pyrazolo[4,3-c]pyridin-6-yl)cyclopropanecarboxamide] | < 10 µM | < 10 µM |
| O=c1[nH]n(-c2cccc(F)c2)c2cc(Nc3ccc(F)cn3)ncc12 [Compound I-60, 1-(3-fluorophenyl)-6-((5-fluoropyridin-2-yl)amino)-1,2-dihydro-3H-pyrazolo[4,3-c]pyridin-3-one] | < 10 µM | > 90 µM |
| O=C(Nc1cc2c(cn1)c(=O)[nH]n2-c1cccc(F)c1)C1CC1 [Compound I-61, N-(1-(3-fluorophenyl)-3-oxo-2,3-dihydro-1H-pyrazolo[4,3-c]pyridin-6-yl)cyclopropanecarboxamide] | < 10 µM | < 10 µM |
| CS(=O)(=O)c1ccc(-n2[nH]c(=O)c3cnc(Nc4ccc(F)cn4)cc32)cc1 [Compound I-62, 6-((5-fluoropyridin-2-yl)amino)-1-(4-(methylsulfonyl)phenyl)-1,2-dihydro-3H-pyrazolo[4,3-c]pyridin-3-one] | 30 to 90 µM | < 10 µM |
| Cc1cc(Nc2cc3c(cn2)c(=O)[nH]n3-c2ccc(C#N)cc2)nc(C)n1 [Compound I-63, 4-(6-((2,6-dimethylpyrimidin-4-yl)amino)-3-oxo-2,3-dihydro-1H-pyrazolo[4,3-c]pyridin-1-yl)benzonitrile] | < 10 µM | < 10 µM |
| N#Cc1ccc(-n2[nH]c(=O)c3cnc(Nc4ccc(F)cn4)cc32)cc1 [Compound I-64, 4-(6-((5-fluoropyridin-2-yl)amino)-3-oxo-2,3-dihydro-1H-pyrazolo[4,3-c]pyridin-1-yl)benzonitrile] | < 10 µM | < 10 µM |
| Cc1cc(Nc2cc3c(cn2)c(=O)[nH]n3-c2ccc(C(F)(F)F)cc2)nc(C)n1 [Compound I-66, 6-((2,6-dimethylpyrimidin-4-yl)amino)-1-(4-(trifluoromethyl)phenyl)-1,2-dihydro-3H-pyrazolo[4,3-c]pyridin-3-one] | < 10 µM | < 10 µM |
| O=c1[nH]n(-c2ccc(C(F)(F)F)cc2)c2cc(Nc3ccc(F)cn3)ncc12 [Compound I-67, 6-((5-fluoropyridin-2-yl)amino)-1-(4-(trifluoromethyl)phenyl)-1,2-dihydro-3H-pyrazolo[4,3-c]pyridin-3-one] | < 10 µM | < 10 µM |
| O=C(Nc1cc2c(cn1)c(=O)[nH]n2-c1ccc(C(F)(F)F)cc1)C1CC1 [Compound I-68, N-(3-oxo-1-(4-(trifluoromethyl)phenyl)-2,3-dihydro-1H-pyrazolo[4,3-c]pyridin-6-yl)cyclopropanecarboxamide] | < 10 µM | < 10 µM |
| O=c1[nH]n(-c2ccc(OC(F)(F)F)cc2)c2cc(Nc3ccc(F)cn3)ncc12 [Compound I-70, 6-((5-fluoropyridin-2-yl)amino)-1-(4-(trifluoromethoxy)phenyl)-1,2-dihydro-3H-pyrazolo[4,3-c]pyridin-3-one] | < 10 µM | < 10 µM |
| O=C(Nc1cc2c(cn1)c(=O)[nH]n2-c1ccc(OC(F)(F)F)cc1)C1CC1 [Compound I-71, N-(3-oxo-1-(4-(trifluoromethoxy)phenyl)-2,3-dihydro-1H-pyrazolo[4,3-c]pyridin-6-yl)cyclopropanecarboxamide] | < 10 µM | < 10 µM |
| COC(=O)c1ccc(-n2[nH]c(=O)c3cnc(Nc4cc(C)nc(C)n4)cc32)cc1 [Compound I-74, methyl 4-(6-((2,6-dimethylpyrimidin-4-yl)amino)-3-oxo-2,3-dihydro-1H-pyrazolo[4,3-c]pyridin-1-yl)benzoate] | < 10 µM | < 10 µM |
| COC(=O)c1ccc(-n2[nH]c(=O)c3cnc(Nc4ccc(F)cn4)cc32)cc1 [Compound I-75, methyl 4-(6-((5-fluoropyridin-2-yl)amino)-3-oxo-2,3-dihydro-1H-pyrazolo[4,3-c]pyridin-1-yl)benzoate] | < 10 µM | < 10 µM |
| COc1cc(-n2[nH]c(=O)c3cnc(Nc4cc(C)nc(C)n4)cc32)ccc1F [Compound I-76, 6-((2,6-dimethylpyrimidin-4-yl)amino)-1-(4-fluoro-3-methoxyphenyl)-1,2-dihydro-3H-pyrazolo[4,3-c]pyridin-3-one] | < 10 µM | < 10 µM |
| COc1cc(-n2[nH]c(=O)c3cnc(Nc4ccc(F)cn4)cc32)ccc1F [Compound I-77, 1-(4-fluoro-3-methoxyphenyl)-6-((5-fluoropyridin-2-yl)amino)-1,2-dihydro-3H-pyrazolo[4,3-c]pyridin-3-one] | < 10 µM | < 10 µM |
| COc1cc(-n2[nH]c(=O)c3cnc(Nc4cc(C)nc(C)n4)cc32)ccc1Cl [Compound I-78, 1-(4-chloro-3-methoxyphenyl)-6-((2,6-dimethylpyrimidin-4-yl)amino)-1,2-dihydro-3H-pyrazolo[4,3-c]pyridin-3-one] | > 90 µM | > 90 µM |
| COc1cc(-n2[nH]c(=O)c3cnc(Nc4ccc(F)cn4)cc32)ccc1Cl [Compound I-79, 1-(4-chloro-3-methoxyphenyl)-6-((5-fluoropyridin-2-yl)amino)-1,2-dihydro-3H-pyrazolo[4,3-c]pyridin-3-one] | > 90 µM | > 90 µM |
| COc1cc(-n2[nH]c(=O)c3cnc(Nc4cc(C)nc(C)n4)cc32)ccc1C#N [Compound I-80, 4-(6-((2,6-dimethylpyrimidin-4-yl)amino)-3-oxo-2,3-dihydro-1H-pyrazolo[4,3-c]pyridin-1-yl)-2-methoxybenzonitrile] | > 90 µM | < 10 µM |
